This assay deals with human PDE10A (Homo sapiens (Human), UniProt Q9Y233). Briefly: human PDE10A full length Scintillation Proximity Assay (SPA). The assay is classed as biochemical. The settings on record: 50 nM cGMP and 50 nM [3H]-cGMP, 20 minutes at room temperature; read-out: PDE10A inhibition IC50. The method, boiled down:
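Radiometric SPA read-out: after 20 min at room temperature with [^3H]-cGMP/cGMP substrate, zinc sulphate (18 mM) bead stop reagent added and counts read after 1 h. Non-specific signal defined without enzyme; full-length protein used.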

Molecules are shown by their SMILES.

Sequence of human PDE10A (Q9Y233 other isoform, or with tags, fused parts or gaps): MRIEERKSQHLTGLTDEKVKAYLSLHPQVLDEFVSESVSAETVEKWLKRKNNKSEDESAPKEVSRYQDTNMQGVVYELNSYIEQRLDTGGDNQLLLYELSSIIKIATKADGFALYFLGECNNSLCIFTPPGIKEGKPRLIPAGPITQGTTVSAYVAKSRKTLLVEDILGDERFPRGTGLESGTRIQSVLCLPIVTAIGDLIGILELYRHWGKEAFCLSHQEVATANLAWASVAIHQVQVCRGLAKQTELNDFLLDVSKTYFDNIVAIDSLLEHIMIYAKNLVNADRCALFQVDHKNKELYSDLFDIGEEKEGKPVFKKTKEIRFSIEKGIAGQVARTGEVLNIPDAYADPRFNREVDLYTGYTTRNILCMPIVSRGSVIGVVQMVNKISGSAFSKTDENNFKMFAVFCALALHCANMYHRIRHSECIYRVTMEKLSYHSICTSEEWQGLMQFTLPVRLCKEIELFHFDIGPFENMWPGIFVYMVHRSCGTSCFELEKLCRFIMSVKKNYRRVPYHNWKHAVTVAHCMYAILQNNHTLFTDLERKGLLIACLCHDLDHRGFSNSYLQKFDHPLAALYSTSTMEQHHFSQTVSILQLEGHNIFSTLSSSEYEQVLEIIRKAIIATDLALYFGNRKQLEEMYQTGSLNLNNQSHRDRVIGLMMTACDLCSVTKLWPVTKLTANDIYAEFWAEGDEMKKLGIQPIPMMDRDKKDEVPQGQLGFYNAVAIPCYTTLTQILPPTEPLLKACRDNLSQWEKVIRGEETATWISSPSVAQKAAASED

`Cn1ncc(NC(=O)c2nc(C3CC3)cnc2Nc2cncnc2)c1C(=O)NCC1CCCO1` (centres unmarked) [Example 232, 6-Cyclopropyl-3-(pyrimidin-5-ylamino)-pyrazine-2-carboxylic acid {1-methyl-5-[(tetrahydro-furan-2-ylmethyl)-carbamoyl]-1H-pyrazol-4-yl}-amide]: the IC50 was 4 nM.

Consider `CCn1ncc(NC(=O)c2nc(C3CC3)cnc2Nc2cncnc2)c1C(=O)NCC1CCCO1` (centres unmarked) [Example 233, 6-Cyclopropyl-3-(pyrimidin-5-ylamino)-pyrazine-2-carboxylic acid {1-ethyl-5-[(tetrahydro-furan-2-ylmethyl)-carbamoyl]-1H-pyrazol-4-yl}-amide], for which the IC50 was 24.9 nM.

On to `Cn1ncc(NC(=O)c2nc(C3CC3)cnc2Nc2cccnc2)c1C(=O)N1CCC1` [Example 234, 6-Cyclopropyl-3-(pyridin-3-ylamino)-pyrazine-2-carboxylic acid [5-(azetidine-1-carbonyl)-1-methyl-1H-pyrazol-4-yl]-amide], for which the 50% inhibitory concentration (IC50) is 77.3 nM.

With `CC1CCCCN1C(=O)c1c(NC(=O)c2nc(C3CC3)cnc2Nc2cncnc2)cnn1C` (centres unmarked) [Example 235, 6-Cyclopropyl-3-(pyrimidin-5-ylamino)-pyrazine-2-carboxylic acid [1-methyl-5-(2-methyl-piperidine-1-carbonyl)-1H-pyrazol-4-yl]-amide], the IC50 was determined as 34 nM.

For the compound `Cn1ncc(NC(=O)c2nc(C3CC3)cnc2Nc2cncnc2)c1C(=O)NC1CCN(C(=O)OC(C)(C)C)C1` (centres unmarked) [Example 236, 3-[(4-{[6-Cyclopropyl-3-(pyrimidin-5-ylamino)-pyrazine-2-carbonyl]-amino}-2-methyl-2H-pyrazole-3-carbonyl)-amino]-pyrrolidine-1-carboxylic acid tert-butyl ester], the IC50 worked out at 6.8 nM.

On to `CN(CC(F)(F)F)C(=O)c1c(NC(=O)c2nc(C3CC3)cnc2Nc2cncnc2)cnn1C` [Example 237, 6-Cyclopropyl-3-(pyrimidin-5-ylamino)-pyrazine-2-carboxylic acid {1-methyl-5-[methyl-(2,2,2-trifluoro-ethyl)-carbamoyl]-1H-pyrazol-4-yl}-amide], for which the IC50 amounted to 93.4 nM.

Regarding `CN(C(=O)c1c(NC(=O)c2nc(C3CC3)cnc2Nc2cncnc2)cnn1C)C1CC1` [Example 238, 6-Cyclopropyl-3-(pyrimidin-5-ylamino)-pyrazine-2-carboxylic acid [5-(cyclopropyl-methyl-carbamoyl)-1-methyl-1H-pyrazol-4-yl]-amide], the IC50 is 52.3 nM.

As for `CC1CCCN1C(=O)c1c(NC(=O)c2nc(C3CC3)cnc2Nc2cncnc2)cnn1C` (centres unmarked) [Example 239, 6-Cyclopropyl-3-(pyrimidin-5-ylamino)-pyrazine-2-carboxylic acid [1-methyl-5-(2-methyl-pyrrolidine-1-carbonyl)-1H-pyrazol-4-yl]-amide], the IC50 worked out at 47.7 nM.

`CN(C(=O)c1c(NC(=O)c2nc(C3CC3)cnc2Nc2cncnc2)cnn1C)C1COC1` [Example 240, 6-Cyclopropyl-3-(pyrimidin-5-ylamino)-pyrazine-2-carboxylic acid [1-methyl-5-(methyl-oxetan-3-yl-carbamoyl)-1H-pyrazol-4-yl]-amide]: the IC50 worked out at 191 nM.

As for `CN1CCCC(NC(=O)c2c(NC(=O)c3nc(C4CC4)cnc3Nc3cncnc3)cnn2C)C1` (centres unmarked) [Example 241, 6-Cyclopropyl-3-(pyrimidin-5-ylamino)-pyrazine-2-carboxylic acid [1-methyl-5-(1-methyl-piperidin-3-ylcarbamoyl)-1H-pyrazol-4-yl]-amide], the IC50 is 28.6 nM.

In the case of `CN1CCC(NC(=O)c2c(NC(=O)c3nc(C4CC4)cnc3Nc3cncnc3)cnn2C)CC1` [Example 242, 6-Cyclopropyl-3-(pyrimidin-5-ylamino)-pyrazine-2-carboxylic acid [1-methyl-5-(1-methyl-piperidin-4-ylcarbamoyl)-1H-pyrazol-4-yl]-amide], the IC50 was 69.3 nM.

In the case of `CNC(=O)c1c(NC(=O)c2nc(C3CC3)cnc2Nc2cncnc2)cnn1CC1CCCO1` (centres unmarked) [Example 243, 6-Cyclopropyl-3-(pyrimidin-5-ylamino)-pyrazine-2-carboxylic acid [5-methylcarbamoyl-1-(tetrahydro-furan-2-ylmethyl)-1H-pyrazol-4-yl]-amide], the IC50 turned out to be 1.4 nM.

Regarding `CC(C)(O)CNC(=O)c1c(NC(=O)c2nc(C3CC3)cnc2Nc2cncnc2)cnn1CC1CCCO1` (centres unmarked) [Example 244, 6-Cyclopropyl-3-(pyrimidin-5-ylamino)-pyrazine-2-carboxylic acid [5-(2-hydroxy-2-methyl-propylcarbamoyl)-1-(tetrahydro-furan-2-ylmethyl)-1H-pyrazol-4-yl]-amide], the IC50 stood at 0.2 nM.

As to `CN(CCF)C(=O)c1c(NC(=O)c2nc(C3CC3)cnc2Nc2cncnc2)cnn1C` [Example 245, 6-Cyclopropyl-3-(pyrimidin-5-ylamino)-pyrazine-2-carboxylic acid {5-[(2-fluoro-ethyl)-methyl-carbamoyl]-1-methyl-1H-pyrazol-4-yl}-amide], the IC50 came out at 35.9 nM.

Take `CN1CCC(N(C)C(=O)c2c(NC(=O)c3nc(C4CC4)cnc3Nc3cncnc3)cnn2C)C1` (centres unmarked) [Example 247, 6-Cyclopropyl-3-(pyrimidin-5-ylamino)-pyrazine-2-carboxylic acid {1-methyl-5-[methyl-(1-methyl-pyrrolidin-3-yl)-carbamoyl]-1H-pyrazol-4-yl}-amide]: the IC50 was 290 nM.

Turning to `CNC(=O)c1c(NC(=O)c2nc(C3CC3)cnc2Nc2cncnc2)cnn1C1CCOC1` (centres unmarked) [Example 250, 6-Cyclopropyl-3-(pyrimidin-5-ylamino)-pyrazine-2-carboxylic acid [5-methylcarbamoyl-1-(tetrahydro-furan-3-yl)-1H-pyrazol-4-yl]-amide], the IC50 came to 15.9 nM.

Turning to `Cn1ncc(NC(=O)c2nc(C3CC3)cnc2Nc2cncnc2)c1C(=O)NC1CCNC1` (centres unmarked) [Example 251, 6-Cyclopropyl-3-(pyrimidin-5-ylamino)-pyrazine-2-carboxylic acid [1-methyl-5-(pyrrolidin-3-ylcarbamoyl)-1H-pyrazol-4-yl]-amide], the IC50 is 137 nM.

`CC1CCCN1C(=O)c1ncccc1NC(=O)c1nc(C2CC2)cnc1Nc1cncnc1` (centres unmarked) [Example 252, 6-Cyclopropyl-3-(pyrimidin-5-ylamino)-pyrazine-2-carboxylic acid [2-(2-methyl-pyrrolidine-1-carbonyl)-pyridin-3-yl]-amide]: the IC50 came to 5.8 nM.

With `CC1COCCN1C(=O)c1ncccc1NC(=O)c1nc(C2CC2)cnc1Nc1cncnc1` (centres unmarked) [Example 254, 6-Cyclopropyl-3-(pyrimidin-5-ylamino)-pyrazine-2-carboxylic acid [2-(3-methyl-morpholine-4-carbonyl)-pyridin-3-yl]-amide], the IC50 amounted to 31.7 nM.

With `Cn1ncc(NC(=O)c2nc(C3CC3)cnc2Nc2cncnc2)c1C(=O)NC[C@@H]1CCCO1` [Example 255, 6-Cyclopropyl-3-(pyrimidin-5-ylamino)-pyrazine-2-carboxylic acid (1-methyl-5-{[(S)-1-(tetrahydro-furan-2-yl)methyl]-carbamoyl}-1H-pyrazol-4-yl)-amide], the IC50 is 2.9 nM.

In the case of `Cn1ncc(NC(=O)c2nc(C3CC3)cnc2Nc2cncnc2)c1C(=O)NC[C@H]1CCCO1` [Example 256, 6-Cyclopropyl-3-(pyrimidin-5-ylamino)-pyrazine-2-carboxylic acid (1-methyl-5-{[(R)-1-(tetrahydro-furan-2-yl)methyl]-carbamoyl}-1H-pyrazol-4-yl)-amide], the IC50 was 3.3 nM.

In the case of `CN(CC1CCCO1)C(=O)c1c(NC(=O)c2nc(C3CC3)cnc2Nc2cncnc2)cnn1C` (centres unmarked) [Example 257, 6-Cyclopropyl-3-(pyrimidin-5-ylamino)-pyrazine-2-carboxylic acid {1-methyl-5-[methyl-(tetrahydro-furan-2-ylmethyl)-carbamoyl]-1H-pyrazol-4-yl}-amide], the IC50 is 67.1 nM.

For `CNC(=O)c1c(NC(=O)c2nc(OC)cnc2Nc2cncnc2)cnn1C` [Example 258, 6-Methoxy-3-(pyrimidin-5-ylamino)-pyrazine-2-carboxylic acid (1-methyl-5-methylcarbamoyl-1H-pyrazol-4-yl)-amide], the concentration for half-maximal inhibition (IC50) came out at 176 nM.

On to `CNC(=O)c1cc(Cl)ncc1NC(=O)c1nc(C2CC2)cnc1Nc1cncnc1` [Example 259, 6-Cyclopropyl-3-(pyrimidin-5-ylamino)-pyrazine-2-carboxylic acid (6-chloro-4-methylcarbamoyl-pyridin-3-yl)-amide], for which the IC50 was found to be 1.8 nM.

On to `CC(C)(O)CNC(=O)c1cc(Cl)ncc1NC(=O)c1nc(C2CC2)cnc1Nc1cncnc1` [Example 260, 6-Cyclopropyl-3-(pyrimidin-5-ylamino)-pyrazine-2-carboxylic acid [6-chloro-4-(2-hydroxy-2-methyl-propylcarbamoyl)-pyridin-3-yl]-amide], for which the IC50 amounted to 1.6 nM.

Consider `CNC(=O)c1cc(C#N)ccc1NC(=O)c1nc(C2CC2)cnc1Nc1cncnc1` [Example 261, 6-Cyclopropyl-3-(pyrimidin-5-ylamino)-pyrazine-2-carboxylic acid (4-cyano-2-methylcarbamoyl-phenyl)-amide], for which the 50% inhibitory concentration (IC50) was found to be 3.5 nM.

In the case of `CNC(=O)c1c(NC(=O)c2nc(C3CC3)cnc2Nc2cncnc2)ccc(C)c1C` [Example 263, 6-Cyclopropyl-3-(pyrimidin-5-ylamino)-pyrazine-2-carboxylic acid (3,4-dimethyl-2-methylcarbamoyl-phenyl)-amide], the IC50 worked out at 54.3 nM.

For the compound `CNC(=O)c1c(NC(=O)c2nc(C3CC3)cnc2Nc2cncnc2)cnn1CCO` [Example 264, 6-Cyclopropyl-3-(pyrimidin-5-ylamino)-pyrazine-2-carboxylic acid [1-(2-hydroxy-ethyl)-5-methylcarbamoyl-1H-pyrazol-4-yl]-amide], the IC50 was determined as 3.2 nM.

Consider `CN(C)C(=O)c1nc(C2CC2)ccc1NC(=O)c1nc(C2CC2)cnc1Nc1cncnc1` [Example 265, 6-Cyclopropyl-3-(pyrimidin-5-ylamino)-pyrazine-2-carboxylic acid (6-cyclopropyl-2-dimethylcarbamoyl-pyridin-3-yl)-amide], for which the IC50 was 20.6 nM.

The values are drawn from patent publication US8703768B2, “Nitrogen containing heteroaryl compounds” (Hoffmann-La Roche Inc., priority 2010, dated 2014).
